Converted amounts (≈) assume the structure as drawn.
Assays:
[1] = tested on: human red blood cells (hRBC); assay: Hemolytic activity; format: cell-based; conditions: 250 μg/mL, 1 h at 37° C.
Method: Hemolytic activity of the peptidomimetics was evaluated on human red blood cells (hRBC) as described previously with minor modifications [FEBS J, 273:4040-4054, 2006; Biochim Biophys Acta., 1798:1864-1875, 2010]. Briefly, 100 μL of fresh hRBC suspension 4% v/v in NaCl/Pi (35 mM phosphate buffer, 150 mM NaCl, pH 7.2) was placed in a 96-well plate. After incubation of the peptidomimetics (100 μL) in the hRBC suspension for 1 h at 37° C., the plates were centrifuged and supernatant (100 μL) was transferred to fresh 96-well plate. Absorbance was read at 540 nm using ELISA plate reader (Molecular Devices). Percent hemolysis was calculated using the following formula: % hemolysis=100[(A−A0)/(At−A0)]
Where, A represents absorbance of sample wells at 540 nm. Also A0 and At represents 0% and 100% hemolysis determined in NaCl/Pi and 1% Triton X-100, respectively (Table 2). […] Peptidomimetics 1e and 1f caused 31% and 30% hemolysis at 250 μg/mL. Peptidomimetics 2d, 2e and 2f caused significant hemolysis with 83%, 96% and 88% damage to hRBCs at […] respectively.

[2] = tested on: methicillin resistant S. aureus (ATCC 33591); assay: MIC, serial broth dilution; format: cell-based, Staphylococcus aureus; conditions: MHB, 18 h, 37° C.
Method: (§1) The peptidomimetics designed in present invention were evaluated as antibacterial therapeutics against a broad range of bacterial strains by broth microdilution method. The antibacterial activity of the peptidomimetics was reported in terms of the minimum inhibitory concentrations (MIC).
(§2) Following bacterial strains were used in this study: S. aureus (ATCC 29213), methicillin resistant S. aureus (ATCC 33591), Staphylococcus epidermidis (ATCC 12228), methicillin resistant Staphylococcus epidermidis(ATCC 51625), Enterococcus faecalis (ATCC 7080), Escherichia coli (ATCC 11775), and Acinetobacter baumannii (ATCC 19606). Antibacterial activity was evaluated using a modified serial broth dilution method in accordance with Clinical Laboratory Standard Institute guidelines [Methods for dilution antimicrobial susceptibility tests for bacteria that grow aerobically-7th ed. Approved standard M7-A7. Clinical and Laboratory Standards Institute, Wayne, Pa., Biochim. Biophys. Acta 1798:1864-1875, 2010.]. Briefly, the inoculums were prepared from mid-log phase bacterial cultures. Peptidomimetics were incubated with bacterial suspension in Muller Hinton broth media (10^5 CFU/mL) in 96 well microtitre plate. The plates were incubated overnight with agitation (200 rpm) at 37° C. After 18 h, absorbance was measured at 630 nm. Cultures without test peptidomimetics were used as positive control. Un-inoculated Mueller Hinton Broth (MHB) was used as negative control. Tests were carried out in duplicate on at least three different days. […] For comparison standard peptide antibiotics vancomycin (VAN) and polymyxin B (PMB) were also assayed under identical conditions (Table 2). […] Further, antibacterial activity of active peptidomimetics 1c and 1d were also evaluated against MRSA in presence of 25% v/v human serum as well as bovine serum.

S. aureus (ATCC 29213) = assay: MIC, serial broth dilution; format: cell-based, Staphylococcus aureus; conditions: MHB, 18 h, 37° C.
Method: as §1, §2

[3] = tested on: Escherichia coli (ATCC 11775); assay: MIC, serial broth dilution; format: cell-based; design: MIC E. coli. (ATCC 11775): unit not given here; conditions: MHB, 18 h, 37° C.
Method: as §1, §2

[4] = tested on: methicillin resistant Staphylococcus epidermidis (ATCC 51625); assay: MIC, serial broth dilution; format: cell-based; conditions: MHB, 18 h, 37° C.
Method: as §1, §2

[5] = tested on: Staphylococcus epidermidis (ATCC 12228); assay: MIC, serial broth dilution; format: cell-based; conditions: MHB, 18 h, 37° C.
Method: as §1, §2

[6] = tested on: Enterococcus faecalis (ATCC 7080); assay: MIC, serial broth dilution; format: cell-based; conditions: MHB, 18 h, 37° C.
Method: as §1, §2

[7] = tested on: Acinetobacter baumannii (ATCC 19606); assay: MIC, serial broth dilution; format: cell-based; conditions: MHB, 18 h, 37° C.
Method: as §1, §2

MRSA = assay: Membrane depolarization with DiSC3(5) dye; format: cell-based, Staphylococcus aureus; conditions: up to the highest concentration tested
Method: For determination of membrane depolarizing ability of designed peptidomimetics, a membrane potential sensitive dye DiSC3(5) was used as described previously with minor modifications [Org Biomol. Chem. 10: 8326-8335, 2012; J. Am. Chem. Soc., 132: 18417-18428, 2010.]. Briefly, overnight grown MRSA was sub cultured into MHB for 2-3 h at 37° C. to obtain mid-log phase cultures. The cells were centrifuged at 4000 rpm for 10 min at 25° C., washed, and re-suspended into respiration buffer (5 mM HEPES, 20 mM glucose, pH 7.4) to obtain a diluted suspension of OD600˜0.05. Then DiSC3(5) [0.18 μM in DMSO], was added to 500 μL aliquotes of the re-suspended cells and allowed to stabilize for 1 h. Baseline fluorescence was acquired using a Edinburg F900 spectrofluorometer by excitation at 622 nm and emission at 670 nm in a 1 cm path length cuvette. Bandwidth of 5 nm was employed for excitation and emission. Subsequently, increasing concentrations of test peptidomimetics were added to the stabilized cells and the increase of fluorescence on account of the de-quenching of DiSC3(5) dye was measured after every 2 min to obtain the maximal depolarization. Increase in relative fluorescence unit (RFU) was plotted against increasing concentrations of different peptidomimetics or PMB. […] The increase in fluorescence for lipid tagged peptidomimetics was concentration dependent up to 9.9 μg/mL and henceforth, got saturated resulting into plateau like dose response curves. The experiment was repeated twice on two consecutive days and produced similar results.

all the tested strains = assay: Antibacterial activity; format: cell-based; conditions: series 2
Method: as §2

S. aureus (ATCC 33591) = assay: Resistance development study, serial passage at sub MIC; format: cell-based, Staphylococcus aureus; conditions: 17 serial passages at sub MIC
Method: FIG. 5: Illustration of resistance development study in S. aureus (ATCC 33591) after 17 serial passages with sub MIC of 1c/1d or antibiotic treatment. The fold change in MIC is the ratio of the MIC after 17 passages relative to that MIC observed before first passage.
To determine potential of active peptidomimetics against resistance development, in vitro serial passage method at sub inhibitory concentration was done. Briefly, bacterial suspension (100 μL) from duplicate wells at the concentration of sub-MIC was used to inoculate fresh culture. The culture was grown to obtain approximately 10^5 CFU/mL for the next experiment. These bacterial suspensions were then incubated with desired concentration of antibacterial agents for 18 h to determine new MIC. The same sub culturing protocol was used for next 16 passages and MIC was determined using OD630 nm as described previously in the text [Chem. Biol., 20:1286-1295, 2013.]

[8] = tested on: Gram-negative bacterial strains; assay: Antibacterial activity; format: cell-based
Method: as §2

Staphylococcus species = assay: Antibacterial activity; format: cell-based
Method: as §2

| Compound | % H, percentage hemolysis of human RBCs [1] | MIC MRSA (ATCC 33591) [2] | MIC S. aureus (ATCC 29213) (S. aureus (ATCC 29213)) | MIC E. coli. (ATCC 11775) [3] | MIC MRSE (ATCC 51625) [4] | MIC S. epidermidis (ATCC 12228) [5] | MIC E. facaelis (ATCC 7080) [6] | MIC A. baumannii (ATCC 19606) [7] | change in relative fluorescence unit (RFU), membrane depolarization (MRSA) | antibacterial activity (all the tested strains) | increase in MIC after 17 passages (S. aureus (ATCC 33591)) | growth inhibition of Gram-negative bacterial strains [8] | activity against Staphylococcus species (Staphylococcus species) |
| --- | --- | --- | --- | --- | --- | --- | --- | --- | --- | --- | --- | --- | --- |
| NCCCNCCCCNCCCNC(=O)C(Cc1c[nH]c2ccccc12)NC(=O)C(Cc1c[nH]c2ccccc12)NC(=O)C=Cc1ccc(O)c(O)c1 (stereo not shown) [1b] | 16% | 7.1 µg/mL (≈ 9.63 µM) | 0.0035 µg/mL (≈ 0.00475 µM) | 14.2 | 0.0071 µg/mL (≈ 0.00963 µM) | 3.5 µg/mL (≈ 4.75 µM) | 0.1136 µg/mL (≈ 0.154 µM) |  |  |  |  |  |  |
| CCCCCCCCCCCC(=O)NC(Cc1c[nH]c2ccccc12)C(=O)NC(Cc1c[nH]c2ccccc12)C(=O)NCCCNCCCCNCCCN (stereo not shown) [1e] | 31% | 3.5 µg/mL (≈ 4.62 µM) | 0.0017 µg/mL (≈ 0.00225 µM) | 14.2 | 0.0017 µg/mL (≈ 0.00225 µM) | 1.7 µg/mL (≈ 2.25 µM) | 0.0071 µg/mL (≈ 0.00938 µM) | 0.0568 µg/mL (≈ 0.075 µM) | significant changes in RFU |  |  |  |  |
| CCCCCC=CCC=CCCCCCCCC(=O)NC(Cc1c[nH]c2ccccc12)C(=O)NC(Cc1c[nH]c2ccccc12)C(=O)NCCCNCCCCNCCCN (stereo not shown) [1f] | 30% | 3.5 µg/mL (≈ 4.18 µM) | 0.0071 µg/mL (≈ 0.00848 µM) | 28.4 | 0.0071 µg/mL (≈ 0.00848 µM) | 1.7 µg/mL (≈ 2.03 µM) | 0.0284 µg/mL (≈ 0.0339 µM) |  | significant changes in RFU |  |  |  |  |
| NCCCN(CCCCN(CCCN)C(=O)C(N)Cc1c[nH]c2ccccc12)C(=O)C(N)Cc1c[nH]c2ccccc12 (stereo not shown) [2a] | 0% | >227.2 µg/mL | >0.4544 µg/mL | >454.4 | 0.2272 µg/mL (≈ 0.395 µM) | >454.4 µg/mL |  |  | only minor increase | poor activity |  |  |  |
| NCCCN(CCCCN(CCCNC(=O)C=Cc1ccc(O)c(O)c1)C(=O)C(N)Cc1c[nH]c2ccccc12)C(=O)C(N)Cc1c[nH]c2ccccc12 (stereo not shown) [2b] | 5% | 454.4 µg/mL (≈ 617 µM) | >0.4544 µg/mL | >454.4 |  |  |  |  |  | poor activity |  |  |  |
| NCCCN(CCCCN(CCCNC(=O)Cc1ccc(C(F)(F)F)cc1)C(=O)C(N)Cc1c[nH]c2ccccc12)C(=O)C(N)Cc1c[nH]c2ccccc12 (stereo not shown) [2c] | 1% | 28.4 µg/mL (≈ 37.3 µM) | 0.0142 µg/mL (≈ 0.0187 µM) | 113.6 | 0.0142 µg/mL (≈ 0.0187 µM) | 7.1 µg/mL (≈ 9.33 µM) |  | 0.1136 µg/mL (≈ 0.149 µM) | only marginal changes in RFU | moderate activity |  |  |  |
| CCCCCCCCCC(=O)NCCCN(CCCCN(CCCN)C(=O)C(N)Cc1c[nH]c2ccccc12)C(=O)C(N)Cc1c[nH]c2ccccc12 (stereo not shown) [2d] | 83% | 1.7 µg/mL (≈ 2.33 µM) | 0.0008 µg/mL (≈ 0.0011 µM) | 28.4 | 0.0017 µg/mL (≈ 0.00233 µM) | 0.8 µg/mL (≈ 1.1 µM) | 0.0284 µg/mL (≈ 0.039 µM) | 0.1136 µg/mL (≈ 0.156 µM) | intermediate changes in fluorescence intensity |  |  |  |  |
| CCCCCCCCCCCC(=O)NCCCN(CCCCN(CCCN)C(=O)C(N)Cc1c[nH]c2ccccc12)C(=O)C(N)Cc1c[nH]c2ccccc12 (stereo not shown) [2e] | 96% | 1.7 µg/mL (≈ 2.25 µM) | 0.0008 µg/mL (≈ 0.00106 µM) | 28.4 | 0.0017 µg/mL (≈ 0.00225 µM) | 0.8 µg/mL (≈ 1.06 µM) | 0.0071 µg/mL (≈ 0.00938 µM) | 0.1136 µg/mL (≈ 0.15 µM) | significant changes in RFU |  |  |  |  |
| CCCCCC=CCC=CCCCCCCCC(=O)NCCCN(CCCCN(CCCN)C(=O)C(N)Cc1c[nH]c2ccccc12)C(=O)C(N)Cc1c[nH]c2ccccc12 (stereo not shown) [2f] | 88% | 3.5 µg/mL (≈ 4.18 µM) | 0.0008 µg/mL (≈ 0.000956 µM) | 28.4 | 0.0017 µg/mL (≈ 0.00203 µM) | 0.8 µg/mL (≈ 0.956 µM) | 0.0142 µg/mL (≈ 0.017 µM) | 0.0568 µg/mL (≈ 0.0678 µM) | significant changes in RFU |  |  |  |  |
| O=C(O)c1cn(C2CC2)c2cc(N3CCNCC3)c(F)cc2c1=O [ciprofloxacin, reference compound] |  |  |  |  |  |  |  |  |  |  | 256 fold |  |  |
| polymyxin B [PMB, reference compound] |  | 28.4 µg/mL | 0.0142 µg/mL | 0.4 | 0.0284 µg/mL | 7.1 µg/mL | 0.1136 µg/mL |  |  |  |  | excellent growth inhibition | relatively poor activity |

Source: patent publication US9738684B2, “N-terminally modified linear and branched polyamine conjugated peptidomimetics as antimicrobials agents” (COUNCIL OF SCIENTIFIC & INDUSTRIAL RESEARCH, priority 2015, dated 2017)
